{"source": "patent US20180296683A1", "about": "“COMPOSITIONS AND METHODS FOR DISASSEMBLING AMYLOID FIBRILS” (The Board of Trustees of the University of Illinois, priority 2017, published 2018)", "format_in_all_cases": "biochemical", "key": {"Aβ40": {"molecular_target": "T1, Aβ40 (Homo sapiens, UniProt P05067)", "T1 construct": "Amyloid protein (Aβ40) was purchased from GL Biochem Ltd. (Shanghai, China); purchased GL Biochem Ltd. (Shanghai, China)", "T1 sequence (P05067 672-711 limits assumed)": "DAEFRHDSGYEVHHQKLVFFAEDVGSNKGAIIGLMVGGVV", "assay": "Circular dichroism of Aβ40 secondary structure with fibril breakers", "conditions": "iAβ5 910 μM, 60.7 equiv; Aβ40 15 μM; 3 days", "procedure": "We used circular dichroism studies to further confirm the secondary structures of disassembled Aβ40 aggregates in the presence of mP-iAβ5 conjugates, PHPMA, or iAβ5. Aβ40 solutions were incubated alone for 24 h to form fibrils. […] As Aβ40 continues to aggregate, the negative peak at 198 nm was converted to the positive peak around 194 nm and a negative peak around 217 nm.\nFibril breakers (mP-iAβ5 conjugates, PHPMA, or iAβ5) were added to preformed Aβ40 fibrils after 24 h and coincubated for 3 days before the structure characterization by circular dichroism.\nCircular Dichroism (CD) spectroscopy. CD spectra of Aβ40 fibril solution incubated without or with fibril breakers (mP-iAβ5 conjugates, PHPMA, or iAβ5) were recorded in a JASCO J-815 Spectrometer (JASCO Co., Tokyo, Japan), using a quartz cuvette (1 mm path length). […] The spectra were taken as the average of three accumulations from 190 and 260 nm at a speed of 50 nm/min. All of the samples were incubated at 37° C. in 10 mM phosphate buffer solution (PBS) with a continuous agitation speed of 567 rpm. Spectra were calibrated by subtracting the buffer or sample solution baseline."}, "preformed Aβ40 fibrils [1]": {"molecular_target": "T2, preformed Aβ40 fibrils (Homo sapiens, UniProt P05067)", "T2 construct": "Amyloid protein (Aβ40) was purchased from GL Biochem Ltd. (Shanghai, China); purchased GL Biochem Ltd. (Shanghai, China)", "T2 sequence (P05067 672-711 limits assumed)": "as above", "assay": "Control incubations with preformed Aβ40 fibrils assessed by AFM and DLS", "conditions": "3 days of incubation", "procedure": "To evaluate the ability of mP-iAβ5 conjugates to disassemble amyloid fibrils, we conducted experiments in which mP-iAβ5 conjugates were incubated with preformed Aβ40 fibrils. Freshly prepared Aβ40 (15 μM) solutions were preincubated at 37° C. for 24 h, which is sufficiently long for mature fibrils to grow, as evidenced by AFM images and ThT fluorescence assays (FIG. 8). The preformed Aβ40 fibrils solution was then coincubated with 1.0 equiv of mP-iAβ5 conjugates of different molecular weights, and the morphology transformation of the fibril structures was monitored at 37° C. for 3 days by DLS, AFM imaging, and ThT fluorescence (we define an equiv of mP-iAβ5 as the molar ratio of polymer to Aβ40).\nThe molecular weight of mP-iAβ5 conjugate that completely disassembles preformed Aβ40 fibrils is 166 kDa. […] The disassembly of preformed fibrils by mP-iAβ5 conjugates was also quantitatively analyzed by DLS in solution phase. In agreement with AFM images, DLS results confirmed that all Aβ40 fibrils were transformed into dispersible sub-100 nm structures, and 0% of fibrils remained after 3 days of incubation (FIG. 2i). […] To investigate the effect of the PHPMA polymer backbone without iAβ5 moieties on Aβ40 disassembly, we incubated preformed Aβ40 fibrils in the presence of 1.0 equiv of 166 kDa PHPMA with and without 60.7 equiv of iAβ5 for 3 days.\nAtomic Force Microscopy (AFM). Samples for AFM studies were taken directly from the ThT assays, and 10 μL of each sample solution was loaded on freshly cleaved mica surface (Electron Microscopy Sciences, catalog NO. 71856-01). Samples were incubated for 5 minutes and rinsed with 5 drops of molecular biology grade water. The mica surface was blow-dried under nitrogen. AFM images were obtained on a MultiMode V (Bruker, Santa Barbara, USA) microscope in tapping mode. Ultrasharp silicon cantilevers (SCANASYST-ATR, Bruker) were used. All of the images were collected at a scan rate of 1 Hz and scan lines of 512.\nDynamic Light Scattering (DLS). Samples for DLS studies were prepared at the same condition as in ThT assays without adding ThT dye molecules. The DLS studies were carried out using a particle sizer NICOMP 380 ZLS."}, "preformed Aβ40 fibrils [2]": {"molecular_target": "T2, preformed Aβ40 fibrils", "assay": "ThT fluorescence assay of Aβ40 fibril disassembly", "conditions": "15 μM Aβ40, PBS pH 7.4, 37° C., 3 days", "procedure": "ThT fluorescence assays were conducted in 96-well black plate (Thermo Scientific NUNC, catalog NO. 265301) at 37° C. with continuous shaking (567 rpm) in a BioTek Hybrid H1 plate reader. ThT fluorescence was recorded with 10 minutes reading intervals and 5 s shaking before first read (442 nm excitation, 482 nm emission). All samples were run in quadruple or more. At least three independent experiments were carried out for each ThT assay. Each well contained 10 mM PBS buffer solution (pH 7.4) and 20 μM ThT in a total volume of 200 μL. Aβ40 (15 μM, 1.0 equiv), iAβ5, control polymer 5, and mP-iAβ5 conjugates 4 of different molecular weights were added as needed. The concentrations of added samples were calculated based on Aβ40 (15 μM, 1.0 equiv).\nPreparation of Buffered ThT Solution. The ThT solution in 20 mM PBS was freshly prepared before use. […] The concentration of the above solution was determined by UV-Vis at 412 nm (ε=36000 M^−1 cm^−1). Based on the determined concentration of the ThT solution, ultrapure water and 100 mM PBS were further added to dilute the ThT solution to 40 μM in 20 mM PBS, pH 7.4 […]\nTo each well of 96-well plate, the buffered ThT solution (40 μM, 100 μL) and ultrapure water (80 μL) were added and mixed. […] The samples containing mature fibrils of Aβ40 and modulators were coincubated for another 3 days in plate reader. The fluorescence was monitored by ThT assays."}}}
{"substance": "LPFFD [iAβ5]", "values": [{"measurement": "secondary structure by CD after coincubation with preformed Aβ40 fibrils", "setting": "Aβ40", "value": "remain β-sheet structures"}, {"measurement": "effect on preformed fibrils according to AFM and DLS", "setting": "preformed Aβ40 fibrils [1]; 8.1 equiv of iAβ5 per Aβ40", "value": "remained unchanged"}, {"measurement": "effect on preformed fibrils according to AFM and DLS", "setting": "preformed Aβ40 fibrils [1]; 16.7 equiv of iAβ5 per Aβ40", "value": "remained unchanged"}, {"measurement": "effect on preformed fibrils according to AFM and DLS", "setting": "preformed Aβ40 fibrils [1]; 32.5 equiv of iAβ5 per Aβ40", "value": "remained unchanged"}, {"measurement": "effect on preformed fibrils according to AFM and DLS", "setting": "preformed Aβ40 fibrils [1]; 60.7 equiv of iAβ5 per Aβ40", "value": "remained unchanged"}, {"measurement": "effect on preformed fibrils according to AFM and DLS", "setting": "preformed Aβ40 fibrils [1]; 81.3 equiv of iAβ5 per Aβ40", "value": "remained unchanged"}, {"measurement": "ThT intensity during coincubation with Aβ40 fibrils", "setting": "preformed Aβ40 fibrils [2]", "value": "not accompanied by the decreased ThT intensity"}]}
